pEC50: −log10 of the molar value.
Key:
Type in all cases: cell-based
alpha2A receptor = molecular target: T1, alpha2A receptor (Homo sapiens, UniProt P08913); test: RSAT assay (Receptor Selection and Amplification Technology), alpha2A; conditions: read-out: Alpha 2A intrinsic activity (IA), in parentheses
T1 construct: expressed in transfected cells; host or cells: NIH-3T3 cells
T1 sequence (P08913 1-465): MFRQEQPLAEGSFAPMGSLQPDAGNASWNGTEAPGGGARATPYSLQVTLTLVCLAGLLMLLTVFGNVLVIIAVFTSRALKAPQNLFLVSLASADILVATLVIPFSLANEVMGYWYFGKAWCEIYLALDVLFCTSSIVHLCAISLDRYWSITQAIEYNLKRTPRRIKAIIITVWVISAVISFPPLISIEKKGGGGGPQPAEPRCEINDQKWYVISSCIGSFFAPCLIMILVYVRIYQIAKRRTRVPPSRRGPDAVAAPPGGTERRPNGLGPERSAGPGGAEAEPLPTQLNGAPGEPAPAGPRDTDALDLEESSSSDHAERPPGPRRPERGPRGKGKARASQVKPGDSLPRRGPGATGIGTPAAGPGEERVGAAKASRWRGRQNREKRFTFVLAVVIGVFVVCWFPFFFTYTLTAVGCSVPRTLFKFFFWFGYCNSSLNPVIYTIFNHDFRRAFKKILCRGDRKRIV
Experimental: (§1) Receptor Selection and Amplification Technology (RSAT) Assay
(§2) The RSAT assay measures a receptor-mediated loss of contact inhibition that results in selective proliferation of receptor-containing cells in a mixed population of confluent cells. The increase in cell number is assessed with an appropriate transfected marker gene such as β-galactosidase, the activity of which can be easily measured in a 96-well format. Receptors that activate the G protein, Gq, elicit this response. Alpha2 receptors, which normally couple to Gi, activate the RSAT response when coexpressed with a hybrid Gq protein that has a Gi receptor recognition domain, called Gq/i5.
(§3) NIH-3T3 cells are plated at a density of 2×10^6 cells in 15 cm dishes and maintained in Dulbecco's modified Eagle's medium supplemented with 10% calf serum. […] After washing with phosphate-buffered saline, β-galactosidase enzyme activity is determined by adding 200 μl of the chromogenic substrate (consisting of 3.5 mM o-nitrophenyl-β-D-galactopyranoside and 0.5% nonidet P-40 in phosphate buffered saline), incubating overnight at 30° C. and measuring optical density at 420 nm. The absorbance is a measure of enzyme activity, which depends on cell number and reflects a receptor-mediated cell proliferation. […]

alpha2C receptor = molecular target: T2, alpha2C receptor (Homo sapiens, UniProt P18825); test: RSAT assay (Receptor Selection and Amplification Technology), alpha2C; conditions: maximal effect relative to standard full agonist brimonidine (UK14304); read-out: Alpha 2C intrinsic activity (IA), in parentheses
T2 construct: expressed in transfected cells; host or cells: NIH-3T3 cells
T2 sequence (P18825 1-462): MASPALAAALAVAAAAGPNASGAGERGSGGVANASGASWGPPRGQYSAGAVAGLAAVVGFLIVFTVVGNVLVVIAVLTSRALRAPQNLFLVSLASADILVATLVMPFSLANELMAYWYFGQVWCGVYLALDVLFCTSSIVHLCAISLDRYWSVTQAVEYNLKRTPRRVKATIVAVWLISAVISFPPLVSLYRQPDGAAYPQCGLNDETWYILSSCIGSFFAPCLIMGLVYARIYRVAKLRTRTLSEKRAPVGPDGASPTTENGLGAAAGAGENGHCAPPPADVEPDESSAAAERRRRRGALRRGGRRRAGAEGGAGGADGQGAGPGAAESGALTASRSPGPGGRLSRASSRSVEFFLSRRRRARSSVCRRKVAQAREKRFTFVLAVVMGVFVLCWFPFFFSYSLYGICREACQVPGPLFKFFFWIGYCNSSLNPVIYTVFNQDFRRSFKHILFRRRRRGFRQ
Experimental: as §1, §2, §3

alpha2B receptor = molecular target: T3, alpha2B receptor (Homo sapiens, UniProt P18089); test: RSAT assay (Receptor Selection and Amplification Technology), alpha2B; conditions: for pEC50: RSAT, NIH-3T3 cells cotransfected with receptor and Gq/i5, ND = not determinable at concentrations less than 10 micromolar, read-out: Alpha 2B EC50; for Emax: maximal effect relative to standard full agonist brimonidine (UK14304), read-out: Alpha 2B intrinsic activity (IA), in parentheses
T3 construct: expressed in transfected cells; host or cells: NIH-3T3 cells
T3 sequence (P18089 1-450): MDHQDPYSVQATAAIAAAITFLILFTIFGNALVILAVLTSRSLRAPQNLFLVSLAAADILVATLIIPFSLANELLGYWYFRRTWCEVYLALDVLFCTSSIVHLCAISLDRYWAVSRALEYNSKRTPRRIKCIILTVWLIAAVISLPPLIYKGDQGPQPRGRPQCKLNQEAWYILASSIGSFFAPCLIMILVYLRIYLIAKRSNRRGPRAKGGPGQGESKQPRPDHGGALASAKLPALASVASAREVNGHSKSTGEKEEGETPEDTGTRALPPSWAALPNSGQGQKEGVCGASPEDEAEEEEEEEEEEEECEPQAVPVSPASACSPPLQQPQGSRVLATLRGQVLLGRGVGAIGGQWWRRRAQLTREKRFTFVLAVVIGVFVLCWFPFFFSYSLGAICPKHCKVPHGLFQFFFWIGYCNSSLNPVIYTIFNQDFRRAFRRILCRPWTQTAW
Experimental: as §1, §2
NIH-3T3 cells are plated at a density of 2×10^6 cells in 15 cm dishes and maintained in Dulbecco's modified Eagle's medium supplemented with 10% calf serum. One day later, cells are cotransfected by calcium phosphate precipitation with mammalian expression plasmids encoding p-SV-β-galactosidase (5-10 μg), receptor (1-2 μg) and G protein (1-2 μg). 40 μg salmon sperm DNA may also be included in the transfection mixture. Fresh media is added on the following day and 1-2 days later, cells are harvested and frozen in 50 assay aliquots. Cells are thawed and 100 μl added to 100 μl aliquots of various concentrations of drugs in triplicate in 96-well dishes. Incubations continue 72-96 hr at 37° C. After washing with phosphate-buffered saline, β-galactosidase enzyme activity is determined by adding 200 μl of the chromogenic substrate (consisting of 3.5 mM o-nitrophenyl-β-D-galactopyranoside and 0.5% nonidet P-40 in phosphate buffered saline), incubating overnight at 30° C. and measuring optical density at 420 nm. The absorbance is a measure of enzyme activity, which depends on cell number and reflects a receptor-mediated cell proliferation. The efficacy or intrinsic activity is calculated as a ratio of the maximal effect of the drug to the maximal effect of a standard full agonist for each receptor subtype. Brimonidine, also called UK14304, the chemical structure of which is shown below, is used as the standard agonist for the alpha2A, alpha2B and alpha2C receptors. The EC50 is the concentration at which the drug effect is half of its maximal effect.
EC50 values are nanomolar. ND stands for “not determinable” at concentrations less than 10 micromolar. IA stands for “intrinsic activity.”

Structure (SMILES) | Emax (alpha2A receptor) [%] | Emax (alpha2C receptor) [%] | pEC50 (alpha2B receptor) | Emax (alpha2B receptor) [%]
c1cnc2c(c1)CCCC2NC1=NCCO1 (centres unmarked) | 3 | 22 | 6.26 | 67
c1cnc2c(n1)CCCC2NC1=NCCO1 (centres unmarked) | 16 | 27 | 6.57 | 86
